Reference: patent publication US20150297629A1, “MODULATION OF RENIN-ANGIOTENSIN SYSTEM (RAS) RELATED DISEASES BY ANGIOTENSINOGEN” (Isis Pharmaceuticals, Inc,, priority 2012, published 2015)
Oligonucleotides are written 5' to 3', each unit as a sugar letter and its base; * is a phosphorothioate linkage, no mark a phosphodiester; rarer units and linkages stand in square brackets, end groups in braces. Plain capitals give the bases only. e = 2'-O-(2-methoxyethyl) (MOE); [5mC] = 5-methylcytosine; d = 2'-deoxy (DNA)

Experiments:
[1] = tested on: angiotensinogen mRNA; test: Real-time PCR of angiotensinogen mRNA in liver and kidney of Sprague-Dawley rats; assay type: in vivo; details: relative to PBS control
Protocol: A control group of rats was injected with phosphate buffered saline (PBS) administered weekly for 4 weeks. The rats were sacrificed at the end of the study at week 4. Whole liver and kidney were harvested for RNA analysis and plasma was collected for protein analysis. RNA was extracted from liver tissue for real-time PCR analysis of angiotensinogen, using primer probe set RTS3550 (forward sequence [NT], designated herein as SEQ ID NO: 18; reverse sequence [NT], designated herein as SEQ ID NO: 19; probe sequence [NT], designated herein as SEQ ID NO: 20). The mRNA levels were normalized using the housekeeping gene, GAPDH. […] Results are presented as percent inhibition of angiotensinogen, relative to control.

[2] = tested on: angiotensinogen protein; test: ELISA of angiotensinogen plasma levels in Sprague-Dawley rats; assay type: in vivo; details: for Percent inhibition of angiotensinogen protein: plasma, relative to PBS control
Protocol: (§1) Groups of Sprague-Dawley rats were injected with 10 mg/kg/week, 20 mg/kg/week, 40 mg/kg/week, or 80 mg/kg/week of ISIS 552668 administered for 4 weeks. A control group of rats was injected with phosphate buffered saline (PBS) administered weekly for 4 weeks. The rats were sacrificed at the end of the study at week 4. Whole liver and kidney were harvested for RNA analysis and plasma was collected for protein analysis.
(§2) Angiotensinogen plasma levels were measured by ELISA (IBL International, Toronto, Canada). […] Results are presented as percent inhibition of angiotensinogen, relative to PBS control.

[3] = tested on: Sprague-Dawley rats; test: Blood pressure by tail-cuff volume-pressure method in Sprague-Dawley rats; assay type: in vivo; details: after 4 wks of treatments
Protocol: as §1
(§3) Systolic blood pressure (SBP), mean arterial pressure (MAP), and diastolic blood pressure (DBP) in the rats was measured by the tail-cuff volume-pressure method (Kent Scientific, Torrington, Conn.).

[4] = tested on: female SHR rats; test: Blood pressure by tail-cuff method in female SHR rats, Study 1; assay type: in vivo, Spontaneously hypertensive (SHR) rats; details: 2 weeks
Protocol: Groups of female SHR rats were injected with 50 mg/kg/week, 75 mg/kg/week, or 100 mg/kg/week of ISIS 552668 administered for 2 weeks. A control group of female SHR rats was injected with phosphate buffered saline (PBS) administered weekly for 2 weeks. Another control group constituted a group of wild-type rats injected with phosphate buffered saline (PBS) administered weekly for 2 weeks.
as §3

[5] = tested on: female SHR rats; test: Blood pressure by tail-cuff method in female SHR rats with subsequent Captopril, Study 2; assay type: in vivo, Spontaneously hypertensive (SHR) rats; details: then Captopril 50 mg/kg/day for 4 days
Protocol: A control group of female SHR rats was injected with phosphate buffered saline (PBS) administered weekly for 2 weeks. Another control group constituted a group of wild-type rats injected with phosphate buffered saline (PBS) administered weekly for 2 weeks. […] Systolic blood pressure (SBP), mean arterial pressure (MAP), and diastolic blood pressure (DBP) in the rats was measured by the tail-cuff volume-pressure method (Kent Scientific, Torrington, Conn.).

[6] = tested on: female SHR rats; test: Heart size after harvest in female SHR rats, Study 2; assay type: in vivo, Spontaneously hypertensive (SHR) rats; details: after 3 weeks, versus wild-type controls
Protocol: The size of the heart was measured immediately after harvest.

[7] = tested on: SHR; test: Mean arterial pressure by tail-cuff method in SHR, Study 3; assay type: in vivo, Spontaneously hypertensive (SHR) rats; details: ISIS 552668 and control oligonucleotide 100 mg/kg/week, Captopril 150 mg/kg/day
Protocol: A control group of SHR was injected with phosphate buffered saline (PBS) administered weekly for 3 weeks. Another control group of SHR was injected with 100 mg/kg/week of a control oligonucleotide (a nucleotide not targeted to angiotensinogen) administered for 3 weeks. […] Mean arterial pressure (MAP) in the rats was measured by the tail-cuff volume-pressure method (Kent Scientific, Torrington, Conn.).

[8] = tested on: angiotensinogen mRNA; test: Real-time PCR of angiotensinogen mRNA in SHR tissues, Study 3; assay type: in vivo, Spontaneously hypertensive (SHR) rats; details: 3 weeks, oligonucleotides 100 mg/kg/week, Captopril 150 mg/kg/day
Protocol: (§4) A group of SHR was injected with 100 mg/kg/week of ISIS 552668 administered for 3 weeks. A control group of SHR was injected with phosphate buffered saline (PBS) administered weekly for 3 weeks. Another control group of SHR was injected with 100 mg/kg/week of a control oligonucleotide (a nucleotide not targeted to angiotensinogen) administered for 3 weeks.
[…] The mRNA levels were normalized using the housekeeping gene, GAPDH. […] Results are presented as percent inhibition of angiotensinogen, relative to control.

[9] = tested on: renin mRNA; test: Real-time PCR of kidney renin mRNA in SHR, Study 3; assay type: in vivo, Spontaneously hypertensive (SHR) rats; details: 3 weeks, oligonucleotides 100 mg/kg/week, Captopril 150 mg/kg/day, PBS = 100
Protocol: A control group of SHR was injected with phosphate buffered saline (PBS) administered weekly for 3 weeks. Another control group of SHR was injected with 100 mg/kg/week of a control oligonucleotide (a nucleotide not targeted to angiotensinogen) administered for 3 weeks. […] RNA was extracted from kidney tissue for real-time PCR analysis of renin, using primer probe set rRenin2 (forward sequence [NT], designated herein as SEQ ID NO: 21; reverse sequence [NT], designated herein as SEQ ID NO: 22; probe sequence [NT], designated herein as SEQ ID NO: 23). The mRNA levels were normalized using the housekeeping gene, GAPDH. […] Increase in renin in the body is deleterious to the overall health of the animal (Nguyen and Muller, The Biology of the (Pro)Renin Receptor, J Am Soc Nephrol, 2010 January, 21(1):18-23). […] Results are presented as percent expression of renin, relative to control.

[10] = tested on: angiotensinogen protein; test: ELISA of angiotensinogen plasma levels in SHR, Study 3; assay type: in vivo, Spontaneously hypertensive (SHR) rats; details: 3 weeks, oligonucleotides 100 mg/kg/week, Captopril 150 mg/kg/day
Protocol: as §4, §2

[11] = tested on: angiotensinogen; test: Immunohistochemical analysis of liver, cardiac and kidney tissues in SHR, Study 3; assay type: in vivo, Spontaneously hypertensive (SHR) rats; details: 100 mg/kg/week for 3 weeks, compared to the PBS control
Protocol: as §4

[12] = tested on: SHR; test: Systolic blood pressure by tail-cuff method in SHR before and after ISIS 552668 added to chronic Captopril, Study 4; assay type: in vivo, Spontaneously hypertensive (SHR) rats; details: no Captopril
[13] = tested on: Dahl/SS rats; test: Blood pressure by tail-cuff method in Dahl/SS rats; assay type: in vivo, Dahl/Salt Sensititive (Dahl/SS) rats; details: female Dahl/SS rats, 8% NaCl diet; 3 weeks; ISIS oligonucleotides 40 mg/kg/week, Captopril 150 mg/kg daily
Protocol: The rats were fed a diet with 8% NaCl. A group of female Dahl/SS rats was injected with 40 mg/kg/week of ISIS 552668 administered for 3 weeks. A group of female Dahl/SS rats was injected with 40 mg/kg/week of control oligonucleotides ISIS 141923 administered for 3 weeks. […] A control group of female Dahl/SS rats was injected with phosphate buffered saline (PBS) administered weekly for 3 weeks. Another control group constituted a group of Dahl/Salt Resistant (Dahl/SR) rats injected with phosphate buffered saline (PBS) administered weekly for 3 weeks.
Systolic blood pressure (SBP), mean arterial pressure (MAP), and diastolic blood pressure (DBP) in the rats was measured by the tail-cuff volume-pressure method (Kent Scientific). The results are presented in Table 12, expressed as the percent decrease in blood pressure compared to the control SHR group.

In the case of “ISIS 552668: 5-10-5 MOE gapmer CACTGATTTTTGCCCAGGAT (SEQ ID NO: 17), phosphorothioate linkages, 5-methylcytosines, targeted to rat angiotensinogen (antisense e[5mC]*eA*e[5mC]*eT*eG*dA*dT*dT*dT*dT*dT*dG*d[5mC]*d[5mC]*d[5mC]*eA*eG*eG*eA*eT)”, the “Percent inhibition of angiotensinogen mRNA, Kidney” value ([1]; 10 mg/kg/wk for 4 weeks) is reported as 41%, the “Percent inhibition of angiotensinogen mRNA, Liver” value ([1]; 10 mg/kg/wk for 4 weeks) is reported as 19% and the “Percent inhibition of angiotensinogen mRNA, Kidney” value ([1]; 20 mg/kg/wk for 4 weeks) is reported as 68%. For the same substance, the “Percent inhibition of angiotensinogen mRNA, Liver” value ([1]; 20 mg/kg/wk for 4 weeks) was 59%, the “Percent inhibition of angiotensinogen mRNA, Kidney” value ([1]; 40 mg/kg/wk for 4 weeks) was 75% and the “Percent inhibition of angiotensinogen mRNA, Liver” value ([1]; 40 mg/kg/wk for 4 weeks) was 86%. For the same substance, the “Percent inhibition of angiotensinogen mRNA, Kidney” value ([1]; 80 mg/kg/wk for 4 weeks) was 77%, the “Percent inhibition of angiotensinogen mRNA, Liver” value ([1]; 80 mg/kg/wk for 4 weeks) was 96% and the “Percent inhibition of angiotensinogen protein” value ([2]; 10 mg/kg/wk for 4 weeks) was 25%. For the same substance, the “Percent inhibition of angiotensinogen protein” value ([2]; 20 mg/kg/wk for 4 weeks) was 38%, the “Percent inhibition of angiotensinogen protein” value ([2]; 40 mg/kg/wk for 4 weeks) was 83% and the “Percent inhibition of angiotensinogen protein” value ([2]; 80 mg/kg/wk for 4 weeks) was 93%. For the same substance, the “ED50 for plasma protein reductions” value ([2]; weekly dosing for 4 weeks) was 23.6 mg/kg, the DBP ([3]; 10 mg/kg/wk) was 107 mm Hg and the MAP ([3]; 10 mg/kg/wk) was 117 mm Hg. It also gave an SBP ([3]; 10 mg/kg/wk) of 138 mm Hg, a DBP ([3]; 40 mg/kg/wk) of 79 mm Hg and an MAP ([3]; 40 mg/kg/wk) of 92 mm Hg. For the same substance, the SBP ([3]; 40 mg/kg/wk) was 118 mm Hg, the DBP ([3]; 80 mg/kg/wk) was 68 mm Hg and the MAP ([3]; 80 mg/kg/wk) was 82 mm Hg. For the same substance, the SBP ([3]; 80 mg/kg/wk) was 109 mm Hg, the DBP ([4]; 50 mg/kg/wk) was 100 mm Hg and the MAP ([4]; 50 mg/kg/wk) was 114 mm Hg. For the same substance, the SBP ([4]; 50 mg/kg/wk) was 144 mm Hg, the DBP ([4]; 75 mg/kg/wk) was 98 mm Hg and the MAP ([4]; 75 mg/kg/wk) was 111 mm Hg. The SBP ([4]; 75 mg/kg/wk) was 140 mm Hg, the DBP ([4]; 100 mg/kg/wk) was 81 mm Hg and the MAP ([4]; 100 mg/kg/wk) was 95 mm Hg. The SBP ([4]; 100 mg/kg/wk) was 122 mm Hg, the DBP ([5]; ASO 50 mg/kg/wk for 2 weeks) was 82 mm Hg and the MAP ([5]; ASO 50 mg/kg/wk for 2 weeks) was 97 mm Hg. For the same substance, the SBP ([5]; ASO 50 mg/kg/wk for 2 weeks) was 127 mm Hg, the DBP ([5]; ASO 75 mg/kg/wk for 2 weeks) was 74 mm Hg and the MAP ([5]; ASO 75 mg/kg/wk for 2 weeks) was 87 mm Hg. The SBP ([5]; ASO 75 mg/kg/wk for 2 weeks) was 113 mm Hg, the DBP ([5]; ASO 100 mg/kg/wk for 2 weeks) was 81 mm Hg and the MAP ([5]; ASO 100 mg/kg/wk for 2 weeks) was 94 mm Hg. For the same substance, the SBP ([5]; ASO 100 mg/kg/wk for 2 weeks) was 120 mm Hg, the “Effect on heart size of the SHR rats” value [6] was “reversed the increase in heart size of the SHR rats to that observed in the wild-type controls” and the “MAP, Week 1” value [7] was 117 mm Hg. The “MAP, Week 2” value [7] was 104 mm Hg, the “MAP, Week 3” value [7] was 109 mm Hg and the “Percent inhibition of angiotensinogen mRNA compared to the PBS control, Heart” value [8] was 89%. The “Percent inhibition of angiotensinogen mRNA compared to the PBS control, Kidney” value [8] was 76%, the “Percent inhibition of angiotensinogen mRNA compared to the PBS control, Liver” value [8] was 87% and the “Percent increase of kidney renin mRNA” value [9] was 379%. The “Percent inhibition of angiotensinogen protein in the plasma compared to the PBS control” value [10] was 91%, the “Angiotensinogen in liver, cardiac and kidney tissues by immunohistochemical analysis” value [11] was “significant reduction of angiotensinogen” and the “Blood pressure (SBP), Before ISIS 552668 dosing” value ([12]; ISIS 552668 50 mg/kg/week) was 146. For the same substance, the “Blood pressure (SBP), Before ISIS 552668 dosing” value ([12]; ISIS 552668 100 mg/kg/week) was 131, the DBP [13] was 94 mm Hg and the MAP [13] was 111 mm Hg. It also gave an SBP [13] of 146 mm Hg.
